Where two headings read alike, the source gives them in different places.
Key:
[1] = Phase 1 study Part 2: single-dose plasma pharmacokinetics, relative bioavailability (tablet vs AIC) and food effect in healthy subjects; assay type: in vivo, human; details: for AUC(0-t) / Tmax / AUC(0-inf) / Cmax / Vd/F / half-life: human, plasma; for Vd/F: read-out: Vz/F (apparent total volume of distribution)
Description: Part 2 was an open label, randomized, crossover study with three periods. The study consisted of a screening phase (Days −21 to −2), baseline (Day −1), three treatment/assessment periods, and a follow up phone call.
Twelve eligible subjects reported to the study center on Day −1 of Period 1 for confinement and baseline assessments.
All subjects fasted overnight for at least 10 hours prior to dosing. For Treatment F, subjects received a standard high-fat breakfast 30 minutes before dosing. Dosing occurred 30 minutes (±5 minutes) after serving the meal.
Treatments D and E were administered in the morning following an overnight fast of at least 10 hours. Subjects who received Treatments D and E (fasted) continued to fast for at least 4 hours after dosing. For Treatment F, subjects received a standard high fat (approximately 50% of the total caloric content of the meal), high calorie (approximately 800 to 1000 calories) breakfast 30 minutes before dosing. The meal derived approximately 150, 250, and 500 to 600 calories from protein, carbohydrates, and fat, respectively. Subjects consumed the entire meal within 30 minutes of serving. Dosing occurred 30 minutes (±5 minutes) after serving the meal.
Actual sampling times were used in the calculation of PK parameters.
AUCt: AUC from time zero to the last quantifiable concentration.
AUC∞: AUC from time zero extrapolated to infinity.
Cmax: Maximum observed plasma concentration.
CL/F: Apparent total plasma clearance when dosed orally.
Vz/F: Apparent total volume of distribution when dosed orally.
t1/2: Terminal phase elimination half-life.
Geometric least squares (LS) means, ratio (fed/fasted) and 90% confidence intervals (CIs) of the ratio of geometric LS means were from an analysis of variance (ANOVA) model with treatment, period, and sequence as fixed effects, and subject nested within sequence as a random effect on the natural log-transformed pharmacokinetics.
The median, median difference (fed-fasted), and 90% confidence interval of the median difference were from the Hodges-Lehmann estimate.

[2] = Solubility in water and SGF (24 hours, ambient temperature, HPLC/UV); assay type: physicochemical; details: for solubility at 24 h: ambient temperature
Description: Solubility in Water and SGF: A portion of the sample was weighed into a 2 mL clear HPLC vial. […] The sample was removed from the shaker and pH measurement was performed using a calibrated pH meter. Then a portion of the sample was filtered using […] Nylon-membraned centrifuge tube filter at 14000 RPM for 5 min. The filtrate was analyzed using HPLC/UV with appropriate dilution. The filtered solid residues were analyzed using XRPD.
For solubility in SGF, the samples were prepared and assayed in the same procedures as mentioned above.

[3] = Solid state physical stability under stress conditions (XRPD); assay type: physicochemical; details: XRPD vs initial material
Description: A portion of the sample was loaded to a 4 mL clear glass vial. Four samples were prepared for each salt. The vials (open) were stored under 4 different stress conditions, respectively.

[4] = Solid state chemical stability under stress conditions (HPLC with UV detection); details: for Chemical stability (open vial, 2 weeks): HPLC/UV
Description: Six vials were prepared for each salt. Two samples were stored in the refrigerator. The other four samples in open vials were stored under 4 stress conditions, respectively. […] One set of samples stored in the refrigerator were used to prepare the stock and standard solutions.

[5] = 200 mg tablet vs 2×100 mg capsules, single oral dose, fasted
[6] = Comparison E/D: 200 mg tablet fasted vs 2×100 mg AIC fasted
[7] = Comparison F/E: 200 mg tablet fed vs fasted
[8] = single oral dose of 200 mg tablet
[9] = measured after 24 hours shaking

## C[C@@H]1CC[C@@H](Nc2nc(NC(C)(C)C)ncc2C(N)=O)C[C@H]1O [Compound 1, 2-(tert-butylamino)-4-((1R,3R,4R)-3-hydroxy-4-methylcyclohexylamino)-pyrimidine-5-carboxamide]
[1]; [5]
  AUCt and AUC∞ of tablet compared to the capsules: equivalent
  Cmax of tablet lower relative to the capsule formulation: ~17%
[1]; [6]
  AUCt, Ratio (%) of Geometric Means: 92.6%
  AUC∞, Ratio (%) of Geometric Means: 92.9%
  Cmax, Ratio (%) of Geometric Means: 82.9%
[1]; [7]
  AUCt, Ratio (%) of Geometric Means: 100.6%
  AUC∞, Ratio (%) of Geometric Means: 100.8%
  Cmax, Ratio (%) of Geometric Means: 106.4%
[1]; Treatment F: 1×200 mg formulated tablet, single oral dose, fed (high-fat breakfast), geometric mean (geometric CV%), N=12
  AUCτ (time 0 to the last quantifiable concentration): 12000 (27.4) ng · h/mL
[1]; 200 mg, Treatment D: 2×100 mg as AIC, single oral dose, fasted, healthy subjects, geometric mean (geometric CV%), N=12, read-out: AUCτ (time 0 to the last quantifiable concentration)
  AUC(0-t): 12900 ng·h/mL
[1]; oral, 200 mg, Comparison E/D: 200 mg tablet fasted vs 2×100 mg AIC fasted, read-out: tmax, Median Difference
  Tmax: 0.01 h
[1]; oral, 200 mg, Comparison F/E: 200 mg tablet fed vs fasted, read-out: tmax, Median Difference
  Tmax: 0.87 h
[1]; oral, postdose, for all doses (Part 1 and Part 2), read-out: median Tmax
  Tmax: 1.95 to 3 h
[1]; po, 200 mg, Treatment D: 2×100 mg as AIC, single oral dose, fasted, N=12, read-out: AUCt, Geometric Mean (ANOVA LS mean)
  AUC(0-t): 12900 ng·h/mL
[1]; po, 200 mg, Treatment D: 2×100 mg as AIC, single oral dose, fasted, N=12, read-out: AUC∞, Geometric Mean (ANOVA LS mean)
  AUC(0-inf): 13100 ng·h/mL
[1]; po, 200 mg, Treatment D: 2×100 mg as AIC, single oral dose, fasted, N=12, read-out: Cmax, Geometric Mean (ANOVA LS mean)
  Cmax: 2080 ng/mL
[1]; po, 200 mg, Treatment D: 2×100 mg as AIC, single oral dose, fasted, N=12, read-out: tmax, Median (Hodges-Lehmann estimate)
  Tmax: 2 h
[1]; po, 200 mg, Treatment D: 2×100 mg as AIC, single oral dose, fasted, geometric mean (geometric CV%), N=12, read-out: AUC∞
  AUC(0-inf): 13100 ng·h/mL
[1]; po, 200 mg, Treatment D: 2×100 mg as AIC, single oral dose, fasted, geometric mean (geometric CV%), N=12, read-out: Cmax
  Cmax: 2080 ng/mL
[1]; po, 200 mg, Treatment D: 2×100 mg as AIC, single oral dose, fasted, geometric mean (geometric CV%), N=12
  Vd/F: 447 L
[1]; po, 200 mg, Treatment D: 2×100 mg as AIC, single oral dose, fasted, geometric mean (geometric CV%), N=12, read-out: t1/2 (terminal elimination half-life) (converted)
  half-life: 20.3 h
[1]; po, 200 mg, Treatment D: 2×100 mg as AIC, single oral dose, fasted, median (minimum, maximum), N=12, read-out: Tmax
  Tmax: 2 h
[1]; po, 200 mg, Treatment E: 1×200 mg formulated tablet, single oral dose, fasted, N=12, read-out: AUCt, Geometric Mean (ANOVA LS mean)
  AUC(0-t): 11900 ng·h/mL
[1]; po, 200 mg, Treatment E: 1×200 mg formulated tablet, single oral dose, fasted, N=12, read-out: AUC∞, Geometric Mean (ANOVA LS mean)
  AUC(0-inf): 12200 ng·h/mL
[1]; po, 200 mg, Treatment E: 1×200 mg formulated tablet, single oral dose, fasted, N=12, read-out: Cmax, Geometric Mean (ANOVA LS mean)
  Cmax: 1730 ng/mL
[1]; po, 200 mg, Treatment E: 1×200 mg formulated tablet, single oral dose, fasted, N=12, read-out: tmax, Median (Hodges-Lehmann estimate)
  Tmax: 2 h
[1]; po, 200 mg, Treatment E: 1×200 mg formulated tablet, single oral dose, fasted, geometric mean (geometric CV%), N=12, read-out: AUCτ (time 0 to the last quantifiable concentration)
  AUC(0-t): 11900 ng·h/mL
[1]; po, 200 mg, Treatment E: 1×200 mg formulated tablet, single oral dose, fasted, geometric mean (geometric CV%), N=12, read-out: AUC∞
  AUC(0-inf): 12200 ng·h/mL
[1]; po, 200 mg, Treatment E: 1×200 mg formulated tablet, single oral dose, fasted, geometric mean (geometric CV%), N=12, read-out: Cmax
  Cmax: 1730 ng/mL
[1]; po, 200 mg, Treatment E: 1×200 mg formulated tablet, single oral dose, fasted, geometric mean (geometric CV%), N=12
  Vd/F: 477 L
[1]; po, 200 mg, Treatment E: 1×200 mg formulated tablet, single oral dose, fasted, geometric mean (geometric CV%), N=12, read-out: t1/2 (terminal elimination half-life) (converted)
  half-life: 20.1 h
[1]; po, 200 mg, Treatment E: 1×200 mg formulated tablet, single oral dose, fasted, median (minimum, maximum), N=12, read-out: Tmax
  Tmax: 2 h
[1]; po, 200 mg, Treatment F: 1×200 mg formulated tablet, single oral dose, fed, N=12, read-out: AUCt, Geometric Mean (ANOVA LS mean)
  AUC(0-t): 12000 ng·h/mL
[1]; po, 200 mg, Treatment F: 1×200 mg formulated tablet, single oral dose, fed, N=12, read-out: AUC∞, Geometric Mean (ANOVA LS mean)
  AUC(0-inf): 12300 ng·h/mL
[1]; po, 200 mg, Treatment F: 1×200 mg formulated tablet, single oral dose, fed, N=12, read-out: Cmax, Geometric Mean (ANOVA LS mean)
  Cmax: 1840 ng/mL
[1]; po, 200 mg, Treatment F: 1×200 mg formulated tablet, single oral dose, fed, N=12, read-out: tmax, Median (Hodges-Lehmann estimate)
  Tmax: 3 h
[1]; po, 200 mg, Treatment F: 1×200 mg formulated tablet, single oral dose, fed, geometric mean (geometric CV%), N=12, read-out: AUC∞
  AUC(0-inf): 12300 ng·h/mL
[1]; po, 200 mg, Treatment F: 1×200 mg formulated tablet, single oral dose, fed, geometric mean (geometric CV%), N=12, read-out: Cmax
  Cmax: 1840 ng/mL
[1]; po, 200 mg, Treatment F: 1×200 mg formulated tablet, single oral dose, fed, geometric mean (geometric CV%), N=12
  Vd/F: 510 L
[1]; po, 200 mg, Treatment F: 1×200 mg formulated tablet, single oral dose, fed, geometric mean (geometric CV%), N=12, read-out: t1/2 (terminal elimination half-life) (converted)
  half-life: 21.7 h
[1]; po, 200 mg, Treatment F: 1×200 mg formulated tablet, single oral dose, fed, median (minimum, maximum), N=12, read-out: Tmax
  Tmax: 3 h
[1]; po, 200 mg, following a single oral dose of 200 mg, read-out: terminal elimination t1/2 (converted)
  half-life: ~20 h
[1]; single 200 mg dose, Treatment D (FIG. 106)
  correlation of plasma concentrations with whole blood concentration: highly correlated
[1]; single oral 200 mg tablet, healthy subjects
  effect of food on the PK of the tablet formulation: no effect
[1]; [8]
  AUCt and AUC∞ under fed compared to fasted conditions: equivalent
  Cmax higher in the fed state compared to the fasted state: ~6%
[2]; [9]
  pH of the solubility sample in SGF: (pH 2.20)
  pH of the solubility sample in water: (pH 8.96)
[2]; pH 2.2, thermodynamic from solid, simulated gastric fluid without pepsin, read-out: Solubility in SGF (equiv. to free base)
  solubility at 24 h: 7170 µg/mL
[2]; pH 8.96, thermodynamic from solid, water, read-out: Solubility in water (equiv. to free base)
  solubility at 24 h: 18 µg/mL
[3]; 80° C./75% RH, listed as Compound 1 (free base)
  Physical stability (open vial, 2 weeks): physically stable
[3]; 80° C./75% RH, listed as Free base
  Physical stability (open vial, 2 weeks): no change
[3]; 80° C., listed as Compound 1 (free base)
  Physical stability (open vial, 2 weeks): physically stable
[3]; 80° C., listed as Free base
  Physical stability (open vial, 2 weeks): no change
[4]; 80° C./75% RH
  Chemical stability (open vial, 2 weeks): no change
[4]; 80° C.
  Chemical stability (open vial, 2 weeks): no change
[4]; solid state, open vial, 80° C., 2 weeks, HPLC with UV detection
  % Remaining at 80° C.: 101.8%
[4]; solid state, open vial, 80° C./75% RH, 2 weeks, HPLC with UV detection
  % Remaining at 80° C./75% RH: 100.8%

Source: patent US10131639B2, “Formulations of 2-(tert-butylamino)-4-((1R,3R,4R)-3-hydroxy-4methylcyclohexylamino)-pyrimidine-5-carboxamide” (Signal Pharmaceuticals, LLC, priority 2014, dated 2018)
